Data reported in patent US20040009921A1, “Methods and compositions for the treatment of cancer” (Allergan, Inc., priority 2002, published 2004).

Columns and labels:
β-catenin = test: Western blotting of β-catenin protein in HEK293 cells and stable lines RBC, CAT, RmBC; type: cell-based, human
Procedure: (§1) (A) Western blotting analysis of HEK293 cells transfected with a combination of expression vectors for LacZ (2 μg), V5-tagged β-catenin(4 μg), and Flag-tagged RXRα (2 μg) as indicated below the gels. […] RXRα protein was measured using an HRP-conjugated mouse monoclonal antibody against the Flag tag. (B) Western blotting analysis of stable cell line RBC that overexpresses both β-catenin and RXRα. […] (C) Western blotting analysis of stable cell line CAT that overexpresses only β-catenin. […] Endogenous and overexpressed β-catenin were detected using a rabbit polyclonal antibody as indicated by “Total” whereas overexpressed β-catenin was analyzed using a mouse monoclonal antibody against the V5 tag. Endogenous and overexpressed RXRα were detected by a rabbit polyclonal antibody against RXRα, whereas overexpressed RXRα was determined by an HRP-conjugated mouse monoclonal antibody against the Flag tag. (D) Western blotting analysis of HEK293 cells transfected with a fixed amount of β-catenin (4 μg) plus an increasing amount of RXRα as indicated at the top. […] (E) Western blotting analysis of HEK293, CV-1, and Hela cells transfected with 2 μg of RXRα and 4 μg of wild type or mutant β-catenin. α. […] (F) Northern blotting analysis of RBC cells using β-catenin as a probe.
(§2) FIG. 4 Receptor and ligand specificity in degradation of β-catenin by retinoid receptors. HEK293 cells transfected with expression vectors for β-catenin (4 μg) and RXRs (2 μg) or RARs (2 μg) and treated with ligands at concentrations indicated at the top of each gel. Protein levels were detected by Western blotting as shown in this figure. β-catenin and RARs were detected by HRP-conjugated antibodies against their V5 tag. RXRs were detected by HRP-conjugated antibodies against their Flag tag. […] In this experiment, the amount of expression vectors for RXRα and RARs used in transfection was 1 μg.
(§3) HEK293 cells were seeded at a density of […] per dish were seeded into 100-mm dishes and cultured overnight in DMEM containing 10% FBS. Cells were transfected with 1-4 μg of various cDNA or parental expression vectors (8 μg of DNA in total) using Lipofectamine®. Five hours after transfection, cells were fed with fresh culture media DMEM containing 10% charcoal-treated FBS with vehicle DMSO or retinoids prepared in DMSO. After a given time of treatment, cells were harvested and lysed in a buffer containing 1% Nonidet® P-40, 30 mM Tris-HCl (pH7.4), 0.5 mM EDTA (pH 8.0), 150 mM NaCl, 10% glycerol, 1 mM sodium orthovanadate, 40 mM NaF, 0.5 mM phenylmethylsulfonyl fluoride (PMSF) and a cocktail of protease inhibitors (Merck).
(§4) Total cell lysates were homogenized by passing through a QIAshredder® (Qiagen) and cleared from insoluble materials by centriftigation at 12,000 g. Protein concentration was determined using a Bradford total protein assay kit (Bio-Rad). Total cell lysates were electrophoresed using a 4-12% SDS-PAGE gradient gel and transferred to either nitrocellulose or PVDF filter membranes. The membranes were blocked with 10% non-fat milk reconstituted from dairy milk powder in phosphate-buffered saline (PBS) containing 0.1% Tween®-20 (PBST). The membranes were incubated with primary antibodies at room temperature for 2 hours or at 4° C. for overnight. After the removal of unbound antibodies, membranes were incubated with horseradish peroxidase-conjugated secondary antibodies for one hour at room temperature and washed five times with PBST.

RXRα = molecular target: T1, RXRα (Homo sapiens, UniProt P19793); test: Western blotting of RXRα protein in HEK293 cells and stable lines; type: cell-based
T1 construct: The RXRα coding region was amplified from this clone by PCR; expressed in transfected cells; host or cells: HEK293 (transient; CAT transfected with RXRα)
T1 sequence (P19793 1-462): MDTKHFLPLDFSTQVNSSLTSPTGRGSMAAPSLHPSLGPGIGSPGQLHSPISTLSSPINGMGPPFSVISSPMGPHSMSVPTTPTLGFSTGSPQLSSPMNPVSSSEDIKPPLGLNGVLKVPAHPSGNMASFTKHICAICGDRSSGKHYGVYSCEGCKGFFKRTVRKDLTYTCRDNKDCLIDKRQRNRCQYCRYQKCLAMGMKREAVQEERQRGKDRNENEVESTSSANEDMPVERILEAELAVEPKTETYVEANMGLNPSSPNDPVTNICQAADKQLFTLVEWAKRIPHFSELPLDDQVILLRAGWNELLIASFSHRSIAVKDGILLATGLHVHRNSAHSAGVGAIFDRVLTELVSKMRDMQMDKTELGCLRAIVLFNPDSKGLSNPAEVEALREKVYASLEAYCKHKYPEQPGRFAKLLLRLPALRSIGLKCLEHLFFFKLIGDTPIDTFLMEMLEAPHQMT
Procedure: as §1, §2, §3, §4

[1] = HEK293 co-expressing RXRα with RARα
[2] = HEK293 transfected with β-catenin and RXRα, 17 hours

## CC(/C=C/[C@@H]1C[C@]1(C)c1ccc2c(c1)C(C)(C)CCC2(C)C)=C\C(=O)O [AGN 4204]
β-catenin; CAT cells transfected with RXRα expression vector, 0.1 μM, 17 hours
  β-catenin protein: significantly reduced
β-catenin; CAT cells, low endogenous RXRα, 0.1 μM, 17 hours
  β-catenin protein: did not cause a significant decrease of β-catenin
β-catenin; HEK293, fixed β-catenin plus increasing amounts of RXRα vector, 0.1 μM, 17 hours
  β-catenin protein: a proportional decrease in β-catenin
β-catenin; HEK293, β-catenin alone overexpressed, 0.1 μM, 6 or 15 hours
  intracellular β-catenin protein levels: no significant effects
β-catenin; [1]
  degradation of β-catenin: RXR-ligand-dependent degradation
β-catenin; HEK293 co-overexpressing β-catenin and RXR, 0.1 μM, 6 or 15 hours
  amounts of β-catenin protein: a reduction in the amounts of β-catenin protein
β-catenin; HEK293 overexpressing RARβ or RARγ
  degradation of β-catenin: did not result in degradation of β-catenin
β-catenin; [2]
  concentration effective in inducing degradation of β-catenin: 1 nM
β-catenin; HEK293 transfected with β-catenin and RXRγ
  degradation of β-catenin through RXRγ: able to stimulated the degradation of β-catenin through RXRγ
β-catenin; HEK293 with β-catenin and RXRα mutants, 0.1 μM, 17 hours
  AGN 4204-induced β-catenin degradation mediated by RXRα deletion mutants: significantly reduced
β-catenin; HEK293 with β-catenin and RXRα, FIG. 4A
  potency in inducing β-catenin degradation: high potency
β-catenin; RBC cells, 0.1 μM
  time at which beginning of β-catenin degradation was observed: 6 h
β-catenin; transiently transfected HEK293 and stable line RmBC (ΔNβ-catenin and RXRα), 0.1 μM
  degradation of ΔNβ-catenin protein: degradation of αNβ-catenin was observed
RXRα; CAT cells, 0.1 μM, 17 hours
  endogenous RXRα protein: a decrease of the endogenous RXRα was observed
RXRα; HEK293, independent of β-catenin, 0.1 μM
  amount of RXRα protein: a reduction inn the amount of RXRα
RXRα; [1]
  degradation of RXRα: RXR-ligand-dependent degradation
RXRα; [2]
  concentration effective in inducing degradation of RXRα: 1 nM
RXRα; RBC cells, 0.1 μM
  time at which degradation of RXRα was first detected: 1 h
